Type in all cases: functional, cell-based
Experiment [1] relates to MIA PaCa-2. Kind of experiment: Cytotoxicity against human MIA PaCa-2 cells assessed as inhibition of cell growth incubated for 7 days in glucose-containing medium by MTT assay. The settings on record: MIA PaCa-2, 168 h. On the technique in general: Tetrazolium assays rely on reduction of a dye to a coloured formazan, in cell work by metabolically active cells.
Experiment [2] concerns MIA PaCa-2. Kind of experiment: Cytotoxicity against human MIA PaCa-2 cells assessed as inhibition of cell growth incubated for 3 days in glucose-containing medium by MTT assay. The settings on record: MIA PaCa-2, 72 h.
The test system of experiment [3] is MIA PaCa-2. Kind of experiment: Cytotoxicity against human MIA PaCa-2 cells assessed as inhibition of cell growth incubated for 3 days in galactose-containing medium by MTT assay. Particulars: MIA PaCa-2, 72 h.
The subject of another experiment is BXPC-3. Description: Cytotoxicity against human BXPC-3 cells assessed as inhibition of cell growth incubated for 7 days in glucose-containing medium by MTT assay. Particulars: BXPC-3, 168 h.

By IC50 is commonly meant the concentration that inhibits the measured activity by half. Consider `CCOC(=O)C1CCCCN1S(=O)(=O)c1ccc(S(=O)(=O)N(CC)CC)cc1` (stereo not drawn), for which the IC50 in the experiment with MIA PaCa-2 [1] is 24600 nM; in the experiment with MIA PaCa-2 [2], more than 3000 nM; with MIA PaCa-2 [3], more than 10 µM; with BXPC-3, 12.9 µM.
Taken in the same sequence, the figures for `CC(C)c1noc(N2CCN(C(=O)[C@@H]3CCCN(S(=O)(=O)c4ccc(S(=O)(=O)NC(C)(C)C)cc4)C3)CC2)n1` were 300 nM, 100 nM, more than 10 µM and 2.6 µM.
Regarding `CCN(CC)S(=O)(=O)c1ccc(S(=O)(=O)N2CCC[C@@H](c3cc(C)no3)C2)cc1`, the IC50 is 4900 nM in the experiment on MIA PaCa-2 [1], 2700 nM in the experiment with MIA PaCa-2 [2], more than 10 µM in the experiment on MIA PaCa-2 [3] and 7.7 µM in the experiment on BXPC-3.
Taken in the same sequence, the figures for `CCOC(=O)[C@@H]1CCCN(S(=O)(=O)c2ccc(S(=O)(=O)N3CCCCC3)cc2)C1` were 2900 nM, 1000 nM, more than 10 µM and 3.3 µM.
As to `CCN(CC)S(=O)(=O)c1ccc(S(=O)(=O)N2CCC[C@@H](C(=O)NC3CCN(C(=O)OC(C)(C)C)CC3)C2)cc1`, the IC50 in the experiment on MIA PaCa-2 [1] turned out to be 100 nM; with BXPC-3, 0.3 µM.
As to `CCOC(=O)[C@@H]1CCCN(S(=O)(=O)c2ccc(S(=O)(=O)N(CC)CC)nc2)C1`, the IC50 is 5600 nM in the experiment with MIA PaCa-2 [1], 1600 nM in the experiment on MIA PaCa-2 [2], more than 10 µM in the experiment on MIA PaCa-2 [3] and 8 µM in the experiment with BXPC-3.
With `CCOC(=O)C1CCN(S(=O)(=O)c2ccc(S(=O)(=O)N(CC)CC)cc2)CC1`, the results for the IC50 in the experiment on MIA PaCa-2 [1] and in the experiment with BXPC-3 were 27200 nM and 23.1 µM, respectively.
In the case of `CCOC(=O)[C@@H]1C[C@H](O)CN(S(=O)(=O)c2ccc(S(=O)(=O)N(CC)CC)cc2)C1` (relative stereo), the IC50 is 1300 nM in the experiment with MIA PaCa-2 [1], 300 nM with MIA PaCa-2 [2], more than 10 µM with MIA PaCa-2 [3] and 3.3 µM in the experiment with BXPC-3.
The like results for `CC(C)c1noc(N2CCN(C(=O)[C@@H]3CCCN(S(=O)(=O)c4ccc(S(=O)(=O)NC5CCC5)cc4)C3)CC2)n1` were, in that order, 600 nM, 200 nM, more than 10 µM and 3.3 µM.
In the case of `CCOC(=O)[C@@H]1CCCN(S(=O)(=O)c2ccc(C(=O)N(CC)CC)cc2)C1`, the IC50 with MIA PaCa-2 [1] was 800 nM; with MIA PaCa-2 [2], 100 nM; with MIA PaCa-2 [3], more than 10 µM; in the experiment on BXPC-3, 0.64 µM.
Taken in the same sequence, the figures for `CCN(CC)S(=O)(=O)c1ccc(S(=O)(=O)N2CCC[C@@H](C(=O)N3CCC(c4nc(C(C)C)no4)CC3)C2)cc1` were 40 nM, 30 nM, more than 10 µM and 0.3 µM.
Taken in the same sequence, the figures for `CCN(CC)S(=O)(=O)c1ccc(S(=O)(=O)N2CCC[C@@H](C(=O)NC3CN(C(=O)OC(C)(C)C)C3)C2)cc1` were 200 nM, 100 nM, more than 10 µM and 1.8 µM.
The like results for `CCN1CC(NC(=O)[C@@H]2CCCN(S(=O)(=O)c3ccc(S(=O)(=O)N(CC)CC)cc3)C2)C1` were, in that order, more than 30000 nM, more than 10000 nM, more than 10 µM and more than 30 µM.
Turning to `CCN(CC)S(=O)(=O)c1ccc(S(=O)(=O)N2CCC[C@@H](C(=O)N[C@@H]3CCN(C(=O)OC(C)(C)C)C3)C2)cc1`, the IC50 was 200 nM in the experiment with MIA PaCa-2 [1], 500 nM in the experiment with MIA PaCa-2 [2], more than 10 µM with MIA PaCa-2 [3] and 0.4 µM in the experiment on BXPC-3.
In the case of `CCOC(=O)N1CCC[C@@H](S(=O)(=O)c2ccc(S(=O)(=O)N(CC)CC)cc2)C1`, the IC50 with MIA PaCa-2 [1] was more than 30000 nM; in the experiment on MIA PaCa-2 [2], more than 10000 nM; with MIA PaCa-2 [3] it was more than 10 µM; in the experiment with BXPC-3, more than 30 µM.
The like results for `CCOC(=O)C12CC(CN(S(=O)(=O)c3ccc(S(=O)(=O)N(CC)CC)cc3)C1)C2` were, in that order, 1000 nM, 400 nM, more than 10 µM and 1.2 µM.
As to `CCN(CC)S(=O)(=O)c1ccc(S(=O)(=O)N2CCC[C@@H](C(=O)NC3CN(C(=O)C4CC4)C3)C2)cc1`, the IC50 in the experiment with MIA PaCa-2 [1] was 2800 nM; with MIA PaCa-2 [2], 3100 nM; in the experiment on MIA PaCa-2 [3], more than 10 µM; in the experiment on BXPC-3, 18.5 µM.
As to `CCOC(=O)[C@@H]1CCCN(S(=O)(=O)c2ccc(S(=O)(=O)N(C)Cc3ccccc3)cc2)C1`, the IC50 with MIA PaCa-2 [1] was more than 30000 nM; with BXPC-3 it was more than 30 µM.
Turning to `CCOC(=O)[C@@H]1CCC[C@@H](S(=O)(=O)c2ccc(S(=O)(=O)N(CC)CC)cc2)C1` (relative stereo), the IC50 with MIA PaCa-2 [1] is 16400 nM; in the experiment on MIA PaCa-2 [2] it was 5000 nM; with MIA PaCa-2 [3] it was more than 10 µM; in the experiment on BXPC-3, 18.5 µM.
The like results for `CCOC(=O)[C@@H]1CCCN(S(=O)(=O)c2ccc3cc(S(=O)(=O)N(CC)CC)ccc3c2)C1` were, in that order, 7400 nM, more than 3000 nM, more than 10 µM and 13.4 µM.
The like results for `CCOC(=O)[C@@H]1CCCN(S(=O)(=O)c2ccc(S(=O)(=O)N(CC)CC)cn2)C1` were, in that order, 1300 nM, 300 nM, more than 10 µM and 1.4 µM.
The like results for `CCOC(=O)[C@@H]1CCC[C@H](S(=O)(=O)c2ccc(S(=O)(=O)N(CC)CC)cc2)C1` (relative stereo) were, in that order, 21500 nM, more than 10000 nM, more than 10 µM and 25.2 µM.
With `CCOC(=O)[C@@H]1CCCN(S(=O)(=O)c2cccc(S(=O)(=O)N(CC)CC)c2)C1`, the IC50 in the experiment on MIA PaCa-2 [1] is more than 30000 nM; with MIA PaCa-2 [2], more than 10000 nM; in the experiment on MIA PaCa-2 [3], more than 10 µM; with BXPC-3 it was more than 30 µM.
Taken in the same sequence, the figures for `CCN(CC)S(=O)(=O)c1ccc(S(=O)(=O)N2CCC[C@@H](C(=O)N(C)C(C)C)C2)cc1` were 6200 nM, 1400 nM, more than 10 µM and 7.7 µM.
Taken in the same sequence, the figures for `CCN(CC)S(=O)(=O)c1ccc(S(=O)(=O)N2CCC[C@@H](C(=O)N[C@H]3CCN(C(=O)OC(C)(C)C)C3)C2)cc1` were 100 nM, 170 nM, more than 10 µM and 0.3 µM.
Taken in the same sequence, the figures for `CCN(CC)S(=O)(=O)c1ccc(S(=O)(=O)N2CCC[C@@H](C(=O)N3CC4(CN(C(=O)OC(C)(C)C)C4)C3)C2)cc1` were 400 nM, 300 nM, more than 10 µM and 1.1 µM.
Consider `CCOC(=O)[C@H]1CCN(S(=O)(=O)c2ccc(S(=O)(=O)N(CC)CC)cc2)C1`, for which the IC50 in the experiment with MIA PaCa-2 [1] is 29200 nM; in the experiment with MIA PaCa-2 [2], more than 10000 nM; in the experiment on MIA PaCa-2 [3], more than 10 µM; in the experiment with BXPC-3, 29.3 µM.
On to `CCOC(=O)[C@@H]1CCN(S(=O)(=O)c2ccc(S(=O)(=O)N(CC)CC)cc2)C1`, for which the concentration for half-maximal inhibition (IC50) was 8600 nM in the experiment with MIA PaCa-2 [1], 1500 nM with MIA PaCa-2 [2], more than 10 µM in the experiment on MIA PaCa-2 [3] and 10 µM in the experiment with BXPC-3.
Turning to `CCOC(=O)C1CN(S(=O)(=O)c2ccc(S(=O)(=O)N(CC)CC)cc2)C1`, the IC50 in the experiment on MIA PaCa-2 [1] was 13900 nM; in the experiment on MIA PaCa-2 [2] it was 800 nM; with MIA PaCa-2 [3], more than 10 µM; in the experiment on BXPC-3 it was 12.7 µM.
Consider `CCN(CC)S(=O)(=O)c1ccc(S(=O)(=O)N2CCC[C@@H](C(=O)NC3CN(S(C)(=O)=O)C3)C2)cc1`, for which the IC50 turned out to be 2500 nM in the experiment with MIA PaCa-2 [1] and 7.4 µM with BXPC-3.
In the case of `CCOC(=O)[C@@H]1C[C@@H](O)CN(S(=O)(=O)c2ccc(S(=O)(=O)N(CC)CC)cc2)C1` (relative stereo), the IC50 in the experiment with MIA PaCa-2 [1] was 7900 nM; in the experiment on MIA PaCa-2 [2], 2100 nM; in the experiment on MIA PaCa-2 [3] it was more than 10 µM; in the experiment with BXPC-3, 10.8 µM.
Taken in the same sequence, the figures for `CCOC(=O)[C@@H]1CCCN(S(=O)(=O)c2ccc(S(=O)(=O)N(CC)CC)c(F)c2)C1` were 900 nM, 200 nM, more than 10 µM and 1.6 µM.
Taken in the same sequence, the figures for `CCN(CC)S(=O)(=O)c1ccc(S(=O)(=O)N2CCC[C@@H](C(=O)NC)C2)cc1` were 8600 nM, 2000 nM, more than 10 µM and 13.8 µM.
Taken in the same sequence, the figures for `CCOC(=O)[C@@H]1CCCN(S(=O)(=O)c2ccc(S(=N)(=O)N(CC)CC)cc2)C1` (stereo partly drawn) were 2600 nM, 900 nM, more than 10 µM and 3.6 µM.
For the compound `CCOC(=O)N1CCC[C@H](S(=O)(=O)c2ccc(S(=O)(=O)N(CC)CC)cc2)C1`, the IC50 in the experiment with MIA PaCa-2 [1] was more than 30000 nM; in the experiment on MIA PaCa-2 [2] it was more than 10000 nM; in the experiment on MIA PaCa-2 [3], more than 10 µM; in the experiment on BXPC-3 it was more than 30 µM.
For the compound `CCOC(=O)[C@@H]1CCCN(S(=O)(=O)c2ccc(S(=O)(=O)N3CCNCC3)cc2)C1`, the IC50 in the experiment with MIA PaCa-2 [1] is more than 30000 nM; in the experiment on BXPC-3, more than 30 µM.
With `CCN(CC)S(=O)(=O)c1ccc(S(=O)(=O)N2CCC[C@@H](C(=O)N3CCN(c4nc(C(F)(F)F)no4)CC3)C2)cc1`, the IC50 is 600 nM in the experiment with MIA PaCa-2 [1], 60 nM with MIA PaCa-2 [2] and more than 10 µM with MIA PaCa-2 [3].
The like results for `CCN(CC)S(=O)(=O)c1ccc(S(=O)(=O)N2CCC[C@@H](C(=O)N3CCN(c4nc(C)no4)CC3)C2)cc1` were, in that order, 250 nM, 200 nM and more than 10 µM.
Taken in the same sequence, the figures for `CCN(CC)S(=O)(=O)c1ccc(S(=O)(=O)N2CCC[C@@H](C(=O)NC3CC3)C2)cc1` were 4600 nM, 1100 nM and more than 10 µM.
Regarding `CCCN(CC)S(=O)(=O)c1ccc(S(=O)(=O)N2CCC[C@@H](C(=O)OCC)C2)cc1`, the IC50 in the experiment on MIA PaCa-2 [1] came to 300 nM; in the experiment on BXPC-3, 0.3 µM.
As to `CCN(CC)S(=O)(=O)c1ccc(S(=O)(=O)N2CCC[C@@H](C(=O)N3CCN(c4nnc(C(C)C)o4)CC3)C2)cc1`, the IC50 in the experiment with MIA PaCa-2 [1] is 1800 nM; with MIA PaCa-2 [2], 1000 nM; in the experiment on MIA PaCa-2 [3], more than 10 µM.
